Series [1] is described as follows: Acute toxicity in mice (LD50). The format is in vivo. The settings on record: for LD50: mouse, in vivo. From the text:
Acute toxicity in mice of α-tocopherol vitamin A acid ester which is the active ingredient of the antitumor agent of this invention is particularly low as shown below, even when any route of administration such as oral route, intraperitoneal route or intravenous injection is applied.

The subject of series [2] is experimental tumor developed on epithelial cells. Conditions: prophylaxis or therapy of experimental tumor; cited from earlier work.
The conditions of series [3]: in vivo; cited from earlier work.
In series [4] the test system is tumor. Description: Prophylactic effect on development of tumor (DMBA-initiated, croton oil-promoted, coated on depilated back). The format is in vivo, ICR mice. The settings on record: groups of 10 mice, 4 months. From the text:
To groups of 10 ICR mice, was applied 0.2% acetone solution of a cancerigenic agent, dimethylbenzanthracene (abbreviated hereinafter as DMBA) by coating said solution on the depilated back of the mice once a day for two weeks. From one week after the final administration of DMBA, an acetone solution of. 0.06% croton oil and a lotion containing an acetone solution of 0.06% croton oil and the active ingredient according to the present invention were coated successively on the back once a day for 4 months.
The lotion used above was prepared according to the following process:
A desired amount of α-tocopherol vitamin A acid ester was dissolved in 10 g of ethyl alcohol together with 0.5 g of […] sorbitan monolaurate and 6 g of glycerin and purified water were added thereto to make up the total 100 g. The solution thus obtained was stirred thoroughly to give lotion.

The test system of series [5] is tumor. Description: Therapeutic effect on tumor (DMBA-induced, hairless mice). In kind it is in vivo. Conditions: three weeks, counted on each animal. On the procedure:
On the back of hairless mice was coated 0.2% DMBA dissolved in olive oil with a brush three times a week for 2 months. After confirmation of development of tumor, test zone comprising groups of five mice was arranged indiscriminately. To these animals was administered α-tocopherol vitamin A acid ester either topically or orally and change of tumor was observed.
the back of animal twice a day with brush.

Where [6] appears, read: intravenous, read-out: LD50, intravenous injection.
[7] abbreviates: ip, intraperitoneal, read-out: LD50, intraperitoneal administration.
[8] abbreviates: oral, read-out: LD50, oral administration.
Setting [9] is: 0.3% lotion, percutaneous, without croton oil.
[10] abbreviates: croton oil + 0.02% lotion, percutaneous, croton oil alone 10.
Setting [11] is: croton oil + 0.3% lotion, percutaneous, croton oil alone 10.
Setting [12] is: 0.01% lotion, topical twice a day, control 5.
The mark [13] stands for this setting: 0.01% lotion, topical twice a day, control 8.
Setting [14] is: 0.01% lotion, topical twice a day, control 17.
[15] abbreviates: 0.05% lotion, topical twice a day, control 5.
The mark [16] stands for this setting: 0.05% lotion, topical twice a day, control 8.
The mark [17] stands for this setting: 0.05% lotion, topical twice a day, control 17.

Read-outs that look alike come from different tables or passages of the source.

Take `CC1=C(/C=C/C(C)=C/C=C/C(C)=C/C(=O)O)C(C)(C)CCC1` [Vitamin A acid, vitamin A acid, reference compound]: the “LD50, intraperitoneal administration” value in series [1] (intraperitoneal) came to 150 mg/kg. Besides, the “LD50, intravenous injection” value in series [1] (intravenous) was 92 mg/kg. Also, the “LD50, oral administration” value in series [1] (oral) stood at 780 mg/kg. The “Antitumor activity (in words)” value in series [2] is recorded as “effective for prophylaxis of development or therapy of experimental tumor developed on epithelial cells”. The “Toxicity (in words)” value in series [3] is given as “quite strongly toxic”.

Take `CC1=C(/C=C/C(C)=C/C=C/C(C)=C/C(=O)Oc2c(C)c(C)c3c(c2C)CCC(C)(CCCC(C)CCCC(C)CCCC(C)C)O3)C(C)(C)CCC1` (stereo not drawn) [α-tocopherol-trans-vitamin A acid ester]: the figures for the LD50 in series [1] (setting [6]), in series [1] (setting [7]) and in series [1] (setting [8]) were greater than 1000 mg/kg, greater than 10000 mg/kg and greater than 10000 mg/kg, respectively. Further, the “Number of animals in which tumor was developed” value was 0 in the series with tumor [4] (setting [9]); 5 with tumor [4] (setting [10]); 3 with tumor [4] (croton oil + 200mg/day, oral, croton oil alone 10); 2 in the series on tumor [4] (setting [11]). Besides, the “Average number of tumor, smaller than 2mm” value with tumor [5] (setting [12]) worked out at 8; in the series on tumor [5] (setting [15]), 13; in the series with tumor [5] (200mg/kg, oral, control (topical) 5), 10; in the series with tumor [5] (500mg/kg, oral, control (topical) 5) it was 6. For the same molecule, the “Average number of tumor, 5-2mm” value came to 5 with tumor [5] (setting [13]); 6 in the series with tumor [5] (setting [16]); 6 in the series with tumor [5] (200mg/kg, oral, control (topical) 8); 5 with tumor [5] (500mg/kg, oral, control (topical) 8). For the same molecule, the “Average number of tumor, larger than 5mm” value in the series with tumor [5] (setting [14]) stood at 7; in the series with tumor [5] (setting [17]), 1; in the series with tumor [5] (200mg/kg, oral, control (topical) 17), 4; in the series with tumor [5] (500mg/kg, oral, control (topical) 17), 2.

As for `CC1=C(/C=C/C(C)=C/C=C/C(C)=C\C(=O)Oc2c(C)c(C)c3c(c2C)CCC(C)(CCCC(C)CCCC(C)CCCC(C)C)O3)C(C)(C)CCC1` (stereo not drawn) [α-tocopherol-13-cis-vitamin A acid ester], the LD50 is greater than 1000 mg/kg in series [1] (setting [6]), greater than 10000 mg/kg in series [1] (setting [7]) and greater than 10000 mg/kg in series [1] (setting [8]). Moreover, the figures for the “Number of animals in which tumor was developed” value in the series with tumor [4] (setting [9]), in the series with tumor [4] (setting [10]) and in the series on tumor [4] (setting [11]) were 0, 4 and 2, respectively. The entries for the “Average number of tumor, smaller than 2mm” value in the series on tumor [5] (setting [12]) and in the series with tumor [5] (setting [15]) were 8 and 4, respectively. The “Average number of tumor, 5-2mm” value in the series on tumor [5] (setting [13]) came to 3; with tumor [5] (setting [16]), 6. For the same molecule, the “Average number of tumor, larger than 5mm” value in the series with tumor [5] (setting [14]) came to 4; in the series on tumor [5] (setting [17]) it was 2.

Values taken from patent US4320141A, “Antitumor agent” (priority 1977, dated 1982).
